Measurements from paper PMC8223974, “Anti-Cancer and Immunomodulatory Activity of a Polyethylene Glycol-Betulinic Acid Conjugate on Pancreatic Cancer Cells” (Life, 2021).
Where “and” joins values, the source holds several entries; their conditions need not be identical. Equal values may be shown once.

How the values were obtained:
[1] = tested on: MIA PaCa-2 cells; experiment: XTT cytotoxicity assay on MIA PaCa-2 cells; assay type: cell-based; details: 72 h
Procedure: (§1) The cytotoxic effect of BA and PEG–BA was assessed using the 2,3-bis-(2-methoxy-4-nitro-5-sulfophenyl)-2H-tetrazolium-5-carboxanilide (XTT) assay, an improved tetrazolium dye based assay that obviates the solubilisation step [41]. A concentration of 1 × 10^5 cells/mL each of adherent MIA PaCa-2 and Vero cells were seeded into 96-well plates (BD Biosciences, San Diego, California, USA) overnight before treatment with the compounds at concentrations ranging from 0.4 to 100 µM for 72 h. Doxorubicin (0.2 µg/mL) was used as a positive control for cell death assessment and DMSO was used as a vehicle control. After treatment, washed cells (433× g, 5 min, 25 °C) were exposed to 125 µL of complete DMEM containing 25 µL of XTT solution and incubated (37 °C, 5% CO2, 95% humidity) for 4 h. The optical density of the mixture was measured at 450 nm with a background at 690 nm using a Multiskan Ascent 96/384 microplate reader (Labsystem, Vantaa, Finland). Cell viability was determined as a percentage relative to the vehicle control. The IC50 was then calculated using GraphPad Prism 6 (GraphPad Software, Inc, San Diego, CA, USA). The selectivity index (IC50 Vero cells/IC50 MIA PaCa-2) and potentiation factor (PF50) at 50% growth inhibition (IC50) were also determined. The PF50 is the IC50 value of free drug divided by the IC50 value obtained from a combination of drugs, which is the polymer drug conjugate in this case. Statistical significance was calculated using a two-way analysis of variant (ANOVA) and the Bonferroni post-test to compare replicate means in GraphPad Prism 6 (GraphPad Software, Inc, San Diego, CA, USA). A p < 0.05 was considered to be statistically significant.

[2] = tested on: Vero cells; experiment: XTT cytotoxicity assay on Vero cells; assay type: cell-based; details: 72 h
Procedure: as §1, with “The selectivity index (IC50 Vero cells/IC50 MIA PaCa-2) and potentiation factor (PF50) at 50% growth inhibition (IC50) were also determined. The PF50 is the IC50 value of free drug divided by the IC50 value obtained from a combination of drugs, which is the polymer drug conjugate in this case.” left out, “A p < 0.05 was considered to be statistically significant.” left out

[3] = tested on: MIA PaCa-2 cells; experiment: Annexin V-FITC / propidium iodide apoptosis detection by flow cytometry; assay type: cell-based, human; details: 4 µM, 72 h
Procedure: The mode of cell death induced by the BA and PEG–BA on MIA PaCa-2 and Vero cells was assessed using the Annexin V-FITC Apoptosis kit I (BD Biosciences, San Diego, CA, USA). The assay was performed per the manufacturer’s protocol and as previously described with slight modifications. The cells were analysed for apoptosis and necrosis after acquiring 30,000 events using a BD LSRFortessa™ Analyser (BD Biosciences, San Diego, CA, USA). The BD FACSDiva software was used to detect fluorescein isothiocyanate (FITC) positive signals for apoptotic cells (Annexin-v positive) on a 530/30 filter and peridinin–chlorophyll–protein (PerCP) positive signals for necrotic cells (propidium iodide positive) on a 610/20 band pass filter. Apoptosis was determined at three different concentrations around the IC50, 1, 1.7 and 4 µM. Doxorubicin (0.2 ug/mL) was used as a positive control for apoptosis induction. The data were exported as flow cytometry standard (FCS) files and analysed using FlowJo software Version 10 (FlowJo, LLC, Ashland, OR, USA). The data were exported and represented as means ± standard error of three independent experiments using GraphPad Prism 6.

[4] = MTT cytotoxicity assay on PBMCs; assay type: cell-based, human; details: human, peripheral blood mononuclear cells (PBMCs), n = 4, read-out: PBMC viability
Procedure: (§2) The supernatant obtained from PBMCs (1 × 10^6 cells/mL) treated and incubated (72 h, 37 °C, 5% CO2, 95% humidity) with BA and PEG–BA (3 µM) were used for this assay. Cytotoxicity was performed on isolated PBMCs (see Supplementary Materials for isolation protocol) using the 3-(4,5-dimethylthiazol-2-yl)-2,5-diphenyl tetrazolium bromide (MTT) assay as previously described. For the cytometric bead array (CBA) assay, the PBMCs were isolated from both consenting PC patients (n = 4) and healthy control donors (n = 2). Ethics clearance to collect blood samples was obtained from the Human Research Ethics Committee (Medical) of the University of the Witwatersrand (M170440). The PBMCs were stimulated with 2 µg/mL of phytohaemagglutinin-protein (PHA-P). After the 72 h incubation period, the cells and medium were transferred to 5 mL Falcon® round-bottom polypropylene tubes and centrifuged at 433× g for 5 min at room temperature. Aliquots of the cell-free supernatant were collected and stored at −80 °C until needed for experiments.

[5] = tested on: peripheral blood mononuclear cells (PBMCs); experiment: MTT cytotoxicity assay on PBMCs; assay type: cell-based, human; details: 3 µM
Procedure: as §2

[6] = tested on: IL-6; experiment: Cytometric bead array Th1/Th2/Th17, IL-6 in supernatant of PHA-P stimulated PBMCs; assay type: cell-based, human; details: 3 µM, 72 h
Procedure: as §2, with “After the 72 h incubation period, the cells and medium were transferred to 5 mL Falcon® round-bottom polypropylene tubes and centrifuged at 433× g for 5 min at room temperature. Aliquots of the cell-free supernatant were collected and stored at −80 °C until needed for experiments.” left out
The CBA Th1/Th2/Th17 assay was performed according to the manufacturer’s instructions (BD Biosciences, La Jolla, San Diego, CA, USA) and as previously described, but with minor modifications. […] Specific fluorescence associated with each bead population was detected using flow cytometry allowing for the identification of the various cytokines in the sample. […] Acquired FCS files were analysed using a flow cytometric analysis software (FCAPArray™) from BD Biosciences. Interferon-gamma (IFN-γ), TNF-α, IL-2, IL-4, IL-6, IL-10 and IL-17A concentrations were all determined from standard curves. […]

SMILES	cell death (cytotoxicity) ([1]; MIA PaCa-2 cells, 0.2 µg/mL (0.4 µM)) [%]	cell death (cytotoxicity) ([2]; 0.2 µg/mL (0.4 µM)) [%]	IC50 ([1]; Homo sapiens, MIA PaCa-2 cells, XTT) [µM]	selectivity index (SI) (IC50 Vero cells/IC50 MIA PaCa-2) ([1]; Vero vs MIA PaCa-2, XTT)	IC50 ([2]; Primates, XTT) [µM]	highest apoptotic effect (mainly late-apoptotic phase) [3] [%]	viability at 72 h, 3 µM [4] [%]	cytotoxicity on PBMCs [5] [%]	IL-6 concentration ([6]; PBMCs of PC patients (n = 4), average) [pg/mL]	IL-6 concentration ([6]; PBMCs of control participants (n = 2)) [pg/mL]
COc1cccc2c1C(=O)c1c(O)c3c(c(O)c1C2=O)C[C@@](O)(C(=O)CO)C[C@@H]3O[C@H]1C[C@H](N)[C@H](O)[C@H](C)O1 [Doxorubicin]	83.3 ± 1.6	43.24 ± 14.2								
C=C(C)[C@@H]1CC[C@]2(C(=O)O)CC[C@]3(C)[C@H](CC[C@@H]4[C@@]5(C)CC[C@H](O)C(C)(C)[C@@H]5CC[C@]43C)[C@@H]12 [BA, betulinic acid]			12.7 ± 0.34	1.4 and 1.43	18.2 ± 0.09	31.43 ± 16.7	9.2 ± 0.8	49.2 ± 0.8	5430.94	396.24
